Laboratory results as given in PubChem BioAssay AID192 (DTP/NCI, 2004).
Several values for one entry are separate records, joined by “and”; a condition that tells them apart may be missing. Equal values may be shown once. Inconclusive results and toxic doses are left out. How the source made its calls: active means survival T/C of 150% or more; inactive means T/C below 125% in these data.

Tested on: BDF1 mice, B16 melanoma ip, median survival T/C
Assay: NCI In Vivo Anticancer Drug Screen. Data for tumor model B16 Melanoma (intraperitoneal) in B6D2F1 (BDF1) mice
Details: endpoint: median survival time, higher = longer survival
Outline: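 Values are ratios of treated (T) to vehicle-control (C) measurements of survival or tumor size in tumor-bearing mice.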

[1] = dose: 50.0 mg/kg/injection, schedule: Q01DX009 (ip), vehicle: saline with Tween-80
[2] = dose: 100.0 mg/kg/injection, schedule: Q01DX009 (ip), vehicle: saline with Tween-80
[3] = dose: 200.0 mg/kg/injection, schedule: Q01DX009 (ip), vehicle: saline with Tween-80
[4] = dose: 25.0 mg/kg/injection, schedule: Q01DX009 (ip), vehicle: saline with Tween-80
[5] = dose: 6.25 mg/kg/injection, schedule: Q01DX009 (ip), vehicle: water
[6] = dose: 12.5 mg/kg/injection, schedule: Q01DX009 (ip), vehicle: water
[7] = dose: 25.0 mg/kg/injection, schedule: Q01DX009 (ip), vehicle: water
[8] = dose: 12.5 mg/kg/injection, schedule: Q01DX009 (ip), vehicle: Klucel (hydroxypropylcellulose) (HPC)
[9] = dose: 25.0 mg/kg/injection, schedule: Q01DX009 (ip), vehicle: Klucel (hydroxypropylcellulose) (HPC)
[10] = dose: 50.0 mg/kg/injection, schedule: Q01DX009 (ip), vehicle: Klucel (hydroxypropylcellulose) (HPC)
[11] = dose: 100.0 mg/kg/injection, schedule: Q01DX009 (ip), vehicle: Klucel (hydroxypropylcellulose) (HPC)
[12] = dose: 200.0 mg/kg/injection, schedule: Q01DX009 (ip), vehicle: Klucel (hydroxypropylcellulose) (HPC)
[13] = dose: 400.0 mg/kg/injection, schedule: Q01DX009 (ip), vehicle: Klucel (hydroxypropylcellulose) (HPC)

Measured: T/C

OCC1OC(n2cnc3c(=S)nc[nH]c32)C(O)C1O (stereo unspecified)
inactive: dose: 12.5 mg/kg/injection, schedule: Q01DX009 (ip), vehicle: saline sonified 102 % of control | dose: 25.0 mg/kg/injection, schedule: Q01DX009 (ip), vehicle: saline sonified 105 % of control | dose: 50.0 mg/kg/injection, schedule: Q01DX009 (ip), vehicle: saline sonified 105 % of control | [1] 104 % of control | dose: 100.0 mg/kg/injection, schedule: Q01DX009 (ip), vehicle: saline sonified 95 % of control and 100 % of control | [2] 104 % of control | dose: 200.0 mg/kg/injection, schedule: Q01DX009 (ip), vehicle: saline sonified 102 % of control | [3] 100 % of control

OCC1OC(O)C(O)C(O)C1O (stereo unspecified)
inactive: dose: 500.0 mg/kg/injection, schedule: Q01DX009 (ip), vehicle: saline 98 % of control | dose: 1000.0 mg/kg/injection, schedule: Q01DX009 (ip), vehicle: saline 93 % of control | dose: 2000.0 mg/kg/injection, schedule: Q01DX009 (ip), vehicle: saline 103 % of control | dose: 4000.0 mg/kg/injection, schedule: Q01DX009 (ip), vehicle: saline 97 % of control

C/C(=C\c1ccccc1)C(=O)c1ccc(-c2ccccc2)cc1
inactive: dose: 100.0 mg/kg/injection, schedule: Q04DX003 (ip), vehicle: Klucel (hydroxypropylcellulose) (HPC) 103 % of control | dose: 200.0 mg/kg/injection, schedule: Q04DX003 (ip), vehicle: Klucel (hydroxypropylcellulose) (HPC) 95 % of control | dose: 400.0 mg/kg/injection, schedule: Q04DX003 (ip), vehicle: Klucel (hydroxypropylcellulose) (HPC) 106 % of control

NC(N)=Nc1ccc(C(=O)Oc2ccc([N+](=O)[O-])cc2Cl)cc1
inactive: dose: 12.5 mg/kg/injection, schedule: Q01DX009 (ip), vehicle: saline with Tween-80 97 % of control | [4] 101 % of control | [1] 93 % of control

N=C(N)c1ccc(/C=C/c2ccc(C(=N)N)cc2O)cc1
inactive: dose: 3.12 mg/kg/injection, schedule: Q01DX009 (ip), vehicle: water 105 % of control and 107 % of control | [5] 88 % of control and 101 % of control | [6] 101 % of control and 107 % of control | [7] 97 % of control and 114 % of control | dose: 50.0 mg/kg/injection, schedule: Q01DX009 (ip), vehicle: water 93 % of control and 104 % of control

O=C(O)C1CCCCC1C(=O)Nc1cccc(C(F)(F)F)c1 (stereo unspecified)
inactive: [8] 114 % of control | [9] 119 % of control | [10] 113 % of control

CC(=O)OC1CCC2(C)C(CCC3C4CC=C(C(C)=O)C4(C)CCC32)C1 (stereo unspecified)
inactive: [11] 86 % of control | [12] 98 % of control | [13] 90 % of control

CC(=O)Oc1[nH]c(=O)c2cccc3c2c1CCC3
inactive: [4] 106 % of control | [1] 107 % of control | [2] 115 % of control | [3] 114 % of control | dose: 400.0 mg/kg/injection, schedule: Q01DX009 (ip), vehicle: saline with Tween-80 105 % of control

CC1CCC2(C)CCC3(C)C(=CCC4C5(C)CCC(O)C(C)(C)C5CCC43C)C2C1C (stereo unspecified)
inactive: [10] 99 % of control | [11] 97 % of control | [12] 90 % of control

CC[n+]1ccc(Nc2ccc(NC(=O)c3ccc(Nc4cc[n+](CC)c5ccc(N)cc45)cc3)cc2)cc1
inactive: dose: 0.5 mg/kg/injection, schedule: Q01DX009 (ip), vehicle: saline 95 % of control | dose: 0.5 mg/kg/injection, schedule: Q01DX009 (ip), vehicle: water 96 % of control | dose: 1.0 mg/kg/injection, schedule: Q01DX009 (ip), vehicle: saline 102 % of control | dose: 1.0 mg/kg/injection, schedule: Q01DX009 (ip), vehicle: water 113 % of control | dose: 2.0 mg/kg/injection, schedule: Q01DX009 (ip), vehicle: saline 100 % of control | dose: 2.0 mg/kg/injection, schedule: Q01DX009 (ip), vehicle: water 116 % of control | dose: 4.0 mg/kg/injection, schedule: Q01DX009 (ip), vehicle: saline 111 % of control | dose: 4.0 mg/kg/injection, schedule: Q01DX009 (ip), vehicle: water 106 % of control | dose: 8.0 mg/kg/injection, schedule: Q01DX009 (ip), vehicle: saline 114 % of control

Cc1ccc(Cl)cc1NC(=O)Nc1ccccc1Cl
inactive: dose: 0.78 mg/kg/injection, schedule: Q01DX009 (ip), vehicle: saline with Tween-80 88 % of control | dose: 1.56 mg/kg/injection, schedule: Q01DX009 (ip), vehicle: saline with Tween-80 90 % of control | dose: 3.13 mg/kg/injection, schedule: Q01DX009 (ip), vehicle: saline with Tween-80 93 % of control | dose: 6.25 mg/kg/injection, schedule: Q01DX009 (ip), vehicle: saline with Tween-80 90 % of control | [9] 89 % of control

O=P(OCc1ccccc1)(OCc1ccccc1)C(Nc1ccccc1)c1ccccc1 (stereo unspecified)
inactive: [10] 97 % of control | [11] 90 % of control | [12] 90 % of control

CC(Br)C(=O)NC(CC(N)=O)C(=O)O (stereo unspecified)
inactive: [1] 91 % of control | [2] 104 % of control | [3] 93 % of control

CN(C)CCCN1c2ccc(O)cc2Sc2ccc(Cl)cc21
inactive: dose: 3.1 mg/kg/injection, schedule: Q01DX009 (ip), vehicle: other 92 % of control | [1] 117 % of control | [2] 124 % of control

CCCS(=O)[O-].CCCS(=O)[O-].[Zn+2]
inactive: dose: 0.05 mg/kg/injection, schedule: Q01DX009 (ip), vehicle: saline 106 % of control | dose: 0.1 mg/kg/injection, schedule: Q01DX009 (ip), vehicle: saline 91 % of control | dose: 0.2 mg/kg/injection, schedule: Q01DX009 (ip), vehicle: saline 103 % of control | dose: 0.4 mg/kg/injection, schedule: Q01DX009 (ip), vehicle: saline 101 % of control | dose: 0.8 mg/kg/injection, schedule: Q01DX009 (ip), vehicle: saline 96 % of control | dose: 1.6 mg/kg/injection, schedule: Q01DX009 (ip), vehicle: saline 100 % of control | dose: 3.2 mg/kg/injection, schedule: Q01DX009 (ip), vehicle: saline 95 % of control | dose: 6.4 mg/kg/injection, schedule: Q01DX009 (ip), vehicle: saline 103 % of control | dose: 12.8 mg/kg/injection, schedule: Q01DX009 (ip), vehicle: saline 101 % of control

COc1ccc(C(C)=O)cc1[N+](=O)[O-]
inactive: [1] 97 % of control | [2] 102 % of control | [3] 105 % of control

CC(C)(C)C1CCCCC1
inactive: [8] 96 % of control | [9] 105 % of control | [10] 95 % of control | [11] 88 % of control

O=C(Nc1cccc(C(F)(F)F)c1)c1cc(Br)cc(Br)c1O
inactive: [8] 108 % of control | [9] 106 % of control | [10] 110 % of control

CC1NCCNCCNCCNC(C)c2cccc1n2 (stereo unspecified)
inactive: dose: 6.25 mg/kg/injection, schedule: Q01DX009 (ip), vehicle: saline 107 % of control | dose: 12.5 mg/kg/injection, schedule: Q01DX009 (ip), vehicle: saline 98 % of control | dose: 25.0 mg/kg/injection, schedule: Q01DX009 (ip), vehicle: saline 102 % of control

O=CNC(Cc1ccccc1)C(=O)O (stereo unspecified)
inactive: [1] 106 % of control | [2] 92 % of control | [3] 89 % of control

O=c1cc[nH]c(=O)o1
inactive: [5] 104 % of control | [6] 111 % of control | [7] 108 % of control

COc1ccc(C(=O)Nc2ccccc2)cc1[N+](=O)[O-]
inactive: [11] 89 % of control | [12] 100 % of control | [13] 94 % of control
